Measured values taken from patent US20040014681A1, “Method for treating dermatoses and tissue damage” (priority 2002, published 2004).

Key:
[1] = Case examples: topical treatment of contact dermatitis to jewelry; assay type: in vivo, human; details: Case 5, adult, recurring red oozing dermatitis under gold and stone ring
Protocol: (§1) The following non-limiting case examples are presented to further illustrate the present invention: In the following examples, unless otherwise stated, the ointment contained about 0.15-0.22 mg of topiramate per ml of ointment (Thermaderm, an aqueous vanishing cream emollient) and sodium bicarbonate in an amount to provide a pH of about 7.8-8.
Case 5: Contact dermatitis to jewelry. […] This was usually treated with topical 0.1% mometasone furoate once daily for six or seven days with clearing of the lesion.
Case 6. Contact dermatitis to jewelry. An adult presented with a recurring red oozing dermatitis under a tight fitting silver/gold stone bracelet on their left wrist occurring especially during the winter and usually treated with topical corticosteroids over a five day period. Topiramate cream/ointment was applied daily with complete clearing in two days.

[2] = several rodent models of epilepsy and an animal model of kindled epilepsy; cited from earlier work
[3] = Case examples: topical treatment of poison ivy lesions; assay type: in vivo, human; details: Case 4, young person, poison ivy lesions on back, once a day application
Protocol: as §1
Case 3: Poison Ivy—A young child with known sensitivity to poison ivy presents with typical raised red vesicular lesions on their hands and left forearm. Topiramate cream/ointment was applied daily with the disappearance of lesions after 3 days.
Case 4: Poison Ivy—A young person having a history of extreme sensitivity to poison ivy presented with the entire right lower quadrant of their back covered with red, vesicular, and oozing lesions. These lesions cleared after four days of once a day application of Topiramate, at which time the application was stopped, leaving the skin dry with dead scales/scabs. The patient was seen four days later in this condition and began to apply Topirmate cream/lotion ever other day with complete resolution over the next six days.

[4] = adjunctive therapy or monotherapy; cited from earlier work

SMILES	time until clearing of the lesion [1]	block of seizures [2]	time until lesions cleared [3]	efficacy in clinical trials of human epilepsy [4]
C[C@@H]1C[C@H]2[C@@H]3CCC4=CC(=O)C=C[C@]4(C)[C@@]3(Cl)[C@@H](O)C[C@]2(C)[C@@]1(OC(=O)c1ccco1)C(=O)CCl [mometasone furoate]	six or seven	–	–	–
CC1(C)O[C@@H]2[C@@H](CO[C@@]3(COS(N)(=O)=O)OC(C)(C)O[C@@H]23)O1 [topiramate, 2,3:4,5-bis-O-(1-methylethylidence)-β-D-fructopyranose sulfamate]	–	effectively block seizures	four	effective as adjunctive therapy or as monotherapy
